Reference: patent publication US20160175634A1 (priority 2014, published 2016)
Several values for one entry are separate records, joined by “and”; a condition that tells them apart may be missing. Equal values may be shown once. Where a name gives a salt, the structure may show the parent alone.

Key:
Type in all cases: cell-based
[1] = system: Glutathione-S transferase
[2] = system: Homoprotocatechuate 2,3-dioxygenase
AtzA [3] = biological target: T1, AtzA (Pseudomonas sp., UniProt P72156)
T1 construct: expressed in transfected cells; host or cells: E. coli DH5α (pMD4)
T1 sequence (P72156 1-474): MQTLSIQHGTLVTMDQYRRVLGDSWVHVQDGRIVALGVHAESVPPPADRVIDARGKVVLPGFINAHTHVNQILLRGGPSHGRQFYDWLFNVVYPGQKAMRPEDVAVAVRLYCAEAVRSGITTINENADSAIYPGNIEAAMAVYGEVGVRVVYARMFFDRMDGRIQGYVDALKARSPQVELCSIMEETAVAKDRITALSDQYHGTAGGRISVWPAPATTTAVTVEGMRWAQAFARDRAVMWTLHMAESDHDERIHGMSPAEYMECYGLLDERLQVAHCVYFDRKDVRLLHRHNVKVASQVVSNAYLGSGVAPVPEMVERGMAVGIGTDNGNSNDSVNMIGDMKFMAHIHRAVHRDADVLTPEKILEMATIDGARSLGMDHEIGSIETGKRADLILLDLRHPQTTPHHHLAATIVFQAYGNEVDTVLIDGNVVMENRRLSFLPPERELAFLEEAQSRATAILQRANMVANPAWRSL

AtzA [4] = biological target: T1, AtzA; remark: listed apart in the source
CAH [5] = biological target: T2, CAH (Moorella thermoacetica, UniProt Q2RGM7)
T2 construct: expressed in transfected cells; host or cells: E. coli BL21(DE3)(pET28b+CAH), IPTG-induced
T2 sequence (Q2RGM7 1-367): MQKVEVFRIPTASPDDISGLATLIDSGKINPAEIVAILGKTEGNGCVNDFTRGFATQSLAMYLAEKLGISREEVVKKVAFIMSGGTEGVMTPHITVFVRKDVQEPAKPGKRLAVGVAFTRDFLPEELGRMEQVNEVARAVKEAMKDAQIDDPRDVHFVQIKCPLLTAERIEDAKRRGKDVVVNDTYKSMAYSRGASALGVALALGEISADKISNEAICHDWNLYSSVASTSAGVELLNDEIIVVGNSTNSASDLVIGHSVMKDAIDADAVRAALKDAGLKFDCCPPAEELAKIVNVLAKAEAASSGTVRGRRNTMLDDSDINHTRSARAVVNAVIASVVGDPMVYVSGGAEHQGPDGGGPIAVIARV

CAH [6] = biological target: T2, CAH; remark: listed apart in the source
[7] = system: Pseudomonas sp. NCIB 9816-4
Escherichia coli DH5α = system: Escherichia coli DH5α
Azo reductase = biological target: T3, Azo reductase (Staphylococcus aureus, UniProt Q50H63)
T3 construct: expressed in transfected cells; host or cells: E. coli DH5 alpha
T3 sequence (Q50H63 1-188): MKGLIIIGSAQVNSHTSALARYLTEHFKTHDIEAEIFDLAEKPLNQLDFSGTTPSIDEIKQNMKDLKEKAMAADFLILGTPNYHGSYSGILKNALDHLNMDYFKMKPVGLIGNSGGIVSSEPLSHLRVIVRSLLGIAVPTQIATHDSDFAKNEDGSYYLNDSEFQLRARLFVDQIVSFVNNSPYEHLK

SMILES: O=[N+]([O-])c1ccc(Cl)c([N+](=O)[O-])c1 [1-chloro2,4-dinitrobenzene]
- Ratio (free cells/gel) [1]: ~3.8

SMILES: CC(=O)Oc1ccc(O)c(O)c1 [3,4 Dihydroxypheny acetate]
- Ratio (free cells/gel) [2]: 1-2.5

SMILES: CCNc1nc(Cl)nc(NC(C)C)n1 [Atrazine, 2-chloro-4-ethylamino-6-isopropylamino-1,3,5-triazine]
- atrazine removal, solutions left for 24 h (AtzA [3]): complete atrazine removal
- increase of degradation rate (AtzA [3]): three-folds
- enhancement of atrazine degradation rates (AtzA [4]): threefold
- rate of atrazine removal, 75% phenyl gel compared to Teos gel (AtzA [4]): approximately 3 fold
- rate of hydroxyatrazine formation, 75% phenyl gel compared to Teos gel (AtzA [4]): approximately 3 fold

SMILES: O=c1[nH]c(=O)[nH]c(=O)[nH]1 [Cyanuric acid]
- cyanuric acid removed (CAH [5]): over 7,000 M
- degradation of cyanuric acid (in words) (CAH [5]): complete degradation
- decrease of initial rate of cyanuric acid degradation (CAH [6]): approximately 50%
- cyanuric acid level (CAH [6]; 15 h): undetectable levels

SMILES: c1ccc2ccccc2c1 [Naphthalene]
- concentration (below detection limit) [7]: < 1 nM
- concentration left in the bulk solution (C/C0) [7]: ~25%
- final concentration (Escherichia coli DH5α): 215.39 ± 7.23 µM
- remaining concentration (Escherichia coli DH5α): 164.26 ± 8.90 µM and 107.67 ± 19.69 µM

SMILES: Oc1ccccc1 [Phenol]
- removal of single substrate from hydrocarbon solution (in words) [7]: very low removal

SMILES: CN(C)c1ccc(/N=N/c2ccccc2C(=O)O)cc1 [methyl red sodium salt]
- Ratio (free cells/gel) (Azo reductase): 1.8-3.7

SMILES: Cc1ccc(O)cc1 [p-Cresol]
- removal of single substrate from hydrocarbon solution (in words) [7]: completely degraded
